Laboratory results from patent US20100168175A1, “ATPENINS” (priority 2008, published 2010).
Read-outs that look alike come from different tables or passages of the source.

How the values were obtained:
[1] = system: Phytophthora infestans; test: whole plant or invertebrate; format: in vivo; conditions: in Solanum lycopersicum, 168 h, read-out: Efficacy in %
[2] = system: Alternaria solani; test: Alternaria test (tomato)/protective; format: in vivo; conditions: young tomato plants, protective spray, application rate 500 (in ppm g/ha [sic]), evaluation 7 days after inoculation; 0% = control, 100% = no infection
[3] = system: Sphaerotheca fuliginea; test: Sphaerotheca test (cucumber)/protective; format: in vivo; conditions: Podosphaera fuliginea, 168 h, read-out: Efficacy in %
[4] = log P by HPLC on a reversed-phase column (C18), EEC Directive 79/831 Annex V.A8; format: physicochemical; conditions: reversed-phase HPLC column (Kromasil 100 C18), H3PO4
Procedure: The stated log P values were determined in accordance with EEC Directive 79/831 Annex V.A8 by HPLC (High Performance Liquid Chromatography) on a reversed-phase column (C18).
HP1100 LC System (UV/DAD); Kromasil 100 C18, 3.5 μm, 75×2.0 mm; mobile phase A: acetonitrile (0.1% formic acid); mobile phase B: water (0.09% formic acid); linear gradient from 10% acetonitrile to 95% acetonitrile over 8.5 min, then 95% acetonitrile for a further 3.5 min; oven temperature 43° C.; flow rate: 0.5 ml/min
HP1100 LC System (UV/DAD); Kromasil 100 C18, 3.5 μm, 70×3.1 mm; mobile phase A: acetonitrile (0.1% phosphoric acid); mobile phase B: water (0.1% phosphoric acid); linear gradient from 10% acetonitrile to 95% acetonitrile over 8.5 min, then 95% acetonitrile for a further 3 min; oven temperature 43° C.; flow rate: 1 ml/min

[5] = young cucumber plants, protective spray, application rate 100 g/ha, evaluation 7 days after inoculation, 0% = control, 100% = no infection

SMILES	pest or weed control at 500 ppm [1]	Efficacy in % [2]	also measured
C/C=C/CC(C)C(=O)c1c(O)c(OC)c(OC)[nH]c1=O (stereo not drawn) [Compound I-1, 4-Hydroxy-5,6-dimethoxy-3-[(4E)-2-methylhex-4-enoyl]pyridin-2(1H)-one]	0%	0%	pest or weed control at 100 g/ha [3]: 77%
COc1ccc(Cn2c(OC)c(OC)c(O)c(C(=O)CCCCc3ccccc3)c2=O)cc1 [Compound I-28]	50%		
CCC(=O)c1c(O)c(OC)c(OC)n(Cc2ccc(OC)cc2)c1=O [Compound I-48, 4-Hydroxy-5,6-dimethoxy-1-(4-methoxybenzyl)-3-propanoylpyridin-2(1H)-one]	63%	57%	
COc1ccc(Cn2c(OC)c(OC)c(O)c(C(=O)c3ccc(C)cc3)c2=O)cc1 [Compound I-49]	50%		
COc1[nH]c(=O)c(C(=O)c2ccc(C)cc2)c(O)c1OC [Compound I-55]	56%		
COc1ccc(Cn2c(OC)c(OC)c(O)c(C(C)=O)c2=O)c(OC)c1 [Compound I-66]		94%	
COc1ccc(Cn2c(O)c(OC)c(O)c(C(=O)C3CCCC3)c2=O)c(OC)c1 [Compound I-69]	50%		
COc1[nH]c(=O)c(C(=O)CCc2ccccc2C)c(O)c1OC [Compound I-72]		50%	
CCC(CC)CC(C)C(=O)c1c(O)c(OC)c(OC)[nH]c1=O (stereo not drawn) [Compound I-74]			pest or weed control at 100 g/ha [3]: 100%
COc1ccc(Cn2c(OC)c(OC)c(O)c(C(=O)Nc3ccc(-c4ccccc4)cc3)c2=O)cc1 [Compound I-75]		70%	
COc1ccc(Cn2c(OC)c(OC)c(O)c(C(=O)CCc3ccc(Oc4ccc(Cl)cc4)cc3)c2=O)cc1 [Compound I-89]	50%		chromatographic logP [4]: 5.75
COc1ccc(Cn2c(O)c(OC)c(O)c(C(=O)C3CCC(C)CC3)c2=O)cc1 (stereo not drawn) [Compound I-101]	78%		
COc1ccc(Cn2c(OC)c(OC)c(O)c(C(=O)Cc3ccc(Br)cc3)c2=O)cc1 [Compound I-107]	78%		
COc1c(O)c(C(=O)C(C)C)c(=O)n(Cc2ccccc2)c1OC [Compound I-108]		67%	
COc1ccc(Cn2c(OC)c(OC)c(O)c(C(=O)C3CC=CCC3)c2=O)c(OC)c1 (stereo not drawn) [Compound I-110]	78%		
COc1ccc(Cn2c(O)c(OC)c(O)c(C(=O)C3CCCCCC3)c2=O)cc1 [Compound I-111]	89%		
COc1[nH]c(=O)c(C(=O)C2CCC(C)CC2)c(O)c1OC (stereo not drawn) [Compound I-121]		56%	
COc1[nH]c(=O)c(C(=O)c2ccc(Cl)cc2)c(O)c1OC [Compound I-122]	56%		
CCCC(C)C(=O)c1c(O)c(OC)c(OC)[nH]c1=O (stereo not drawn) [Compound I-129]	56%		pest or weed control at 100 g/ha [3]: 98%
COc1[nH]c(=O)c(C(=O)C2CC2)c(O)c1OC [Compound I-130]	56%		
COc1[nH]c(=O)c(C(=O)C(C)CC(C)C)c(O)c1OC (stereo not drawn) [Compound I-138, 3-(2,4-Dimethylpentanoyl)-4-hydroxy-5,6-dimethoxypyridin-2(1H)-one]			pest or weed control at 100 g/ha [3, 5]: 96%

SMILES	pest or weed control at 500 ppm [1]	Efficacy in % [2]	also measured
CCCC(C)c1ccccc1NC(=O)c1c(O)c(OC)c(OC)[nH]c1=O (stereo not drawn) [Compound I-139]	60%		
COc1[nH]c(=O)c(C(=O)C(C)Cc2ccc(C(F)(F)F)cc2)c(O)c1OC (stereo not drawn) [Compound I-141]	70%	80%	
COc1[nH]c(=O)c(C(=O)C(C)C2CCCCC2)c(O)c1OC (stereo not drawn) [Compound I-149]		80%	
COc1[nH]c(=O)c(C(=O)C(C)CCC(C)C)c(O)c1OC (stereo not drawn) [Compound I-153]		90%	
COc1ccc(Cn2c(OC)c(OC)c(O)c(C(=O)C(C)C/C=C\COCc3ccccc3)c2=O)cc1 (stereo not drawn) [Compound I-157]		50%	
COc1[nH]c(=O)c(C(=O)C(C)CCCc2ccccc2)c(O)c1OC (stereo not drawn) [Compound I-158]	60%	50%	
COc1[nH]c(=O)c(C(=O)C(C)CC(C)Cc2ccccc2)c(O)c1OC (stereo not drawn) [Compound I-160]		70%	
COc1[nH]c(=O)c(C(=O)C(C)CC2CCC(C(C)C)CC2)c(O)c1OC (stereo not drawn) [Compound I-164]		90%	chromatographic logP [4]: 5.41
COc1ccc(Cn2c(OC)c(OC)c(O)c(C(=O)C(C)Cc3c(Cl)cccc3Cl)c2=O)cc1 (stereo not drawn) [Compound I-172, 3-[3-(2,6-Dichlorophenyl)-2-methylpropanoyl]-4-hydroxy-5,6-dimethoxy-1-(4-methoxybenzyl)pyridin-2(1H)-one]	71%		
CCCCCC(C)C(=O)c1c(O)c(OC)c(O)n(Cc2ccc(OC)cc2)c1=O (stereo not drawn) [Compound I-178, 4,6-Dihydroxy-5-methoxy-1-(4-methoxybenzyl)-3-(2-methylheptanoyl)pyridin-2(1H)-one]	60%		
COc1ccc(Cn2c(O)c(OC)c(O)c(C(=O)C(C)CC(F)(F)F)c2=O)cc1 (stereo not drawn) [Compound I-180]	50%		
CCCC1CCC(C(=O)c2c(O)c(OC)c(OC)n(Cc3ccc(OC)cc3)c2=O)CC1 (stereo not drawn) [Compound I-184]		56%	
COc1[nH]c(=O)c(C(=O)C(C)CC(F)(F)F)c(O)c1OC (stereo not drawn) [Compound I-197]			pest or weed control at 100 g/ha [3, 5]: 100%
COc1[nH]c(=O)c(C(=O)C(C)c2ccc(Cl)cc2)c(O)c1OC (stereo not drawn) [Compound I-204]			pest or weed control at 100 g/ha [3, 5]: 85%
CCCCCCC(CCCC)C(=O)c1c(O)c(OC)c(OC)[nH]c1=O (stereo not drawn) [Compound I-212]		71%	
CCC(C)CC(C)C(=O)c1c(O)c(OC)c(OC)[nH]c1=O (stereo not drawn) [Compound I-219]		50%	
COc1[nH]c(=O)c(C(=O)c2ccc3ccccc3c2)c(O)c1OC [Compound I-221]	80%	93%	
COc1[nH]c(=O)c(C(=O)C(C)CCC(C)(C)C)c(O)c1OC (stereo not drawn) [Compound I-228]		80%	
CCCCC(C)C(=O)c1c(O)c(OC)c(OC)[nH]c1=O (stereo not drawn) [Compound I-230]		70%	pest or weed control at 100 g/ha [3]: 98%
COc1[nH]c(=O)c(C(=O)C(C)CCC2CCCC2)c(O)c1OC (stereo not drawn) [Compound I-240]			pest or weed control at 100 g/ha [3, 5]: 98%
